Laboratory results published in PMC10820527, “Synthesis, Characterization, and Investigation of Anti-Inflammatory and Cytotoxic Activities of Novel Thiourea Derivatives of Naproxen” (Pharmaceutics, 2023).

Columns and labels:
[1] = test system: carrageenan-induced rat paw edema; assay: Carrageenan-induced rat paw edema model; type: in vivo; conditions: for Rat Paw Thickness: mean ± SD; for inhibition in vivo at 2.5 mg/kg / inhibition in vivo at 5 mg/kg / inhibition in vivo at 10 mg/kg: Rattus norvegicus
Protocol: The Carrageenan-induced rat paw edema model was used to assess the anti-inflammatory potential of novel compounds 8–14. Induction of inflammation was performed in all animals by intraplantar injection of […] 0.5% carrageenan saline into the left hind paw.
Animals (n = 200) were randomly divided into the following groups: control groups, that received either 1% DMSO or naproxen, and experimental groups, that received the novel compounds 8–14.
Control groups included DMSO and naproxen groups. Rats belonging to the DMSO group received 1% DMSO in the same volume as the compounds 8–14, 60 min before carrageenan injection. Moreover, naproxen groups included rats that were subjected to naproxen treatment in three doses: 2.5 mg/kg, 5 mg/kg, and 10 mg/kg. Naproxen was applied in the same manner as 1% DMSO.
Experimental groups included rats that were treated with compounds 8–14 and they were divided into three subgroups depending on the applied dose: 2.5 mg/kg, 5 mg/kg, and 10 mg/kg. The examined compounds were dissolved in 1% DMSO prior to treatment and applied to rats 60 min before inducing inflammation, i.e., before carrageenan injection. Doses of naproxen and investigated compounds were defined based on our previously published research.
In order to quantify the anti-inflammatory effects of the tested compounds, left paw thickness was measured at specific time points: prior to inflammation induction (moment 0) and 1, 2, 3, and 4 h (moments 1, 2, 3, and 4) following carrageenan injection. Tissue thickness was measured in the middle of the rat paw using a Digital Vernier caliper (Aerospace, China). The percentage of inhibition of paw edema after treatment with different agents was calculated according to the formula, Equation (2):% Inhibition = 100 × [1 − (Yt/Yc)](2) where Yt = average increase in paw thickness in the treated group of rats between two measurement moments, and Yc = average increase in paw thickness in the untreated group of rats between two measurement moments.

HCT 116 = assay: MTT cytotoxicity assay, HCT 116; type: cell-based, human; conditions: for IC50: Homo sapiens, mean ± SD
Protocol: Three cancer cell lines (MDA-MB-231, HCT116 and HeLa; i.e., human breast cancer cells, human colorectal cancer cells, and human cervical cancer cells, respectively), and one non-malignant fibroblast MRC-5 cell line (control) were used in this study. The American Type Cell Collection (ATCC, Manassas, VA, USA) provided all examined cell lines. The cells were grown in a complete medium made up of high-glucose DMEM media supplemented with 10% fetal bovine serum and […] L-glutamine (both from Sigma-Aldrich, USA). The cells were cultured in 25 cc flasks (Thermo Fischer Scientific, Waltham, MA, USA) at 37 °C with 100% humidity in a 5% CO2 atmosphere.
The MTT test was used to assess the cytotoxicity of compounds 1–14 [44]. The cytotoxicity of naproxen was also investigated due to its clinical use and structural similarity. Throughout the exponential development period, cells were taken from culture flasks and counted, and 5 × 10^3 cells/well were planted into 96-well culture plates. Following that, the cell lines were treated with varying doses of the investigated chemicals (1–14), naproxen ([…]), and fresh complete media as a control. All evaluated cells were incubated for 24, 48, and 72 h at 37 °C in an environment containing 5% CO2 and 100% humidity. Following incubation, each well’s culture media was taken out, each well received an addition of MTT solution at a final concentration of 0.5 mg/mL, and the cells were left to incubate for an additional four hours. The MTT solution was then withdrawn carefully, and the formazan crystals were dissolved in DMSO. After shaking the plates for 10 min, absorbance at 595 nm was measured using a multiplate reader (Zenyth 3100, Anthos Labtec Instruments, Salzburg, Austria). All concentrations of the tested compounds were performed in three separate wells of the microtiter plates and in three separate experiments. The results were reported as a ratio to the control value, untreated cells. IC50 values were also determined using Microsoft Office Excel 2021. The percentage of viable cells was estimated by dividing the readout absorbance value in the wells containing treated cells by the average absorbance value measured in the wells containing untreated cells, and multiplying the result by 100 [44]. % of the viable cells = ((absorbance of treated cell-absorbance of blank)/(absorbance of untreated cell-absorbance of blank)) × 100(3)

[2] = 2.5 mg/kg, 1 h after carrageenan
[3] = 2.5 mg/kg, 2 h after carrageenan
[4] = 2.5 mg/kg, 3 h after carrageenan
[5] = 2.5 mg/kg, 4 h after carrageenan
[6] = 5.0 mg/kg, 1 h after carrageenan
[7] = 5.0 mg/kg, 2 h after carrageenan
[8] = 5.0 mg/kg, 3 h after carrageenan
[9] = 5.0 mg/kg, 4 h after carrageenan
[10] = 10.0 mg/kg, 1 h after carrageenan
[11] = 10.0 mg/kg, 2 h after carrageenan
[12] = 10.0 mg/kg, 3 h after carrageenan
[13] = 10.0 mg/kg, 4 h after carrageenan

Compound | Rat Paw Thickness [1, 2] [mm] | Rat Paw Thickness [1, 3] [mm] | Rat Paw Thickness [1, 4] [mm] | Rat Paw Thickness [1, 5] [mm] | Rat Paw Thickness [1, 6] [mm] | Rat Paw Thickness [1, 7] [mm] | Rat Paw Thickness [1, 8] [mm] | Rat Paw Thickness [1, 9] [mm] | Rat Paw Thickness [1, 10] [mm] | Rat Paw Thickness [1, 11] [mm] | Rat Paw Thickness [1, 12] [mm] | Rat Paw Thickness [1, 13] [mm] | inhibition in vivo at 2.5 mg/kg ([1]; 2.5 mg/kg, 1 h) [%] | inhibition in vivo at 2.5 mg/kg ([1]; 2.5 mg/kg, 2 h) [%] | inhibition in vivo at 2.5 mg/kg ([1]; 2.5 mg/kg, 3 h) [%] | inhibition in vivo at 2.5 mg/kg ([1]; 2.5 mg/kg, 4 h) [%] | inhibition in vivo at 5 mg/kg ([1]; 5.0 mg/kg, 1 h) [%] | inhibition in vivo at 5 mg/kg ([1]; 5.0 mg/kg, 2 h) [%] | inhibition in vivo at 5 mg/kg ([1]; 5.0 mg/kg, 3 h) [%] | inhibition in vivo at 5 mg/kg ([1]; 5.0 mg/kg, 4 h) [%] | other results
COc1ccc2cc([C@H](C)C(=O)NC(=S)Nc3ccc(C)cc3)ccc2c1 [Compound 9, (S)-2-(6-methoxynaphthalen-2-yl)-N-(p-tolylcarbamothioyl)propanamide] | 6.60 ± 0.10 | 6.33 ± 0.06 | 5.97 ± 0.06 | 5.70 ± 0.26 | 6.53 ± 0.32 | 6.23 ± 0.23 | 5.90 ± 0.17 | 5.50 ± 0.36 | 6.20 ± 0.17 | 5.83 ± 0.29 | 5.33 ± 0.15 | 5.05 ± 0.09 | 25.2 | 28.8 | 35.1 | 37.8 | 22.4 | 27.3 | 31.5 | 42.2 | inhibition in vivo at 10 mg/kg ([1]; 10.0 mg/kg, 1 h): 22.4%; inhibition in vivo at 10 mg/kg ([1]; 10.0 mg/kg, 2 h): 30.3%; inhibition in vivo at 10 mg/kg ([1]; 10.0 mg/kg, 3 h): 44.1%; inhibition in vivo at 10 mg/kg ([1]; 10.0 mg/kg, 4 h): 50%; Cytotoxic effect against the HCT 116 cell line (in words) (HCT 116): moderate cytotoxic effects; IC50 (HCT 116; HCT-116, 24 h): > 200 µM; IC50 (HCT 116; HCT-116, 48 h): 105 ± 14.8 µM; IC50 (HCT 116; HCT-116, 72 h): 52.9 ± 8.1 µM
COc1ccc2cc([C@H](C)C(=O)NC(=S)Nc3ccccc3C)ccc2c1 [Compound 10, (S)-2-(6-methoxynaphthalen-2-yl)-N-(o-tolylcarbamothioyl)propanamide] | 6.17 ± 0.51 | 6.07 ± 0.83 | 5.77 ± 0.85 | 5.17 ± 0.75 | 6.47 ± 0.51 | 6.13 ± 0.47 | 5.77 ± 0.32 | 5.67 ± 0.40 | 6.20 ± 0.36 | 5.93 ± 0.31 | 5.70 ± 0.44 | 5.20 ± 0.44 | 18.4 | 13.6 | 13.5 | 33.3 | 29.3 | 36.4 | 44.1 | 37.8 | inhibition in vivo at 10 mg/kg ([1]; 10.0 mg/kg, 1 h): 19.7%; inhibition in vivo at 10 mg/kg ([1]; 10.0 mg/kg, 2 h): 22.7%; inhibition in vivo at 10 mg/kg ([1]; 10.0 mg/kg, 3 h): 20.7%; inhibition in vivo at 10 mg/kg ([1]; 10.0 mg/kg, 4 h): 35.6%; Cytotoxic effect against the HCT 116 cell line (in words) (HCT 116): moderate cytotoxic effects; IC50 (HCT 116; HCT-116, 24 h): 120 ± 8.8 µM; IC50 (HCT 116; HCT-116, 48 h): 97.2 ± 6.8 µM; IC50 (HCT 116; HCT-116, 72 h): 33.3 ± 5.5 µM
COc1ccc2cc([C@H](C)C(=O)NC(=S)Nc3ccccc3OC)ccc2c1 [Compound 11, (S)-2-(6-methoxynaphthalen-2-yl)-N-((2-methoxyphenyl)carbamothioyl)propanamide] | 7.30 ± 0.60 | 6.97 ± 0.67 | 6.67 ± 0.80 | 6.50 ± 0.80 | 6.97 ± 0.12 | 6.73 ± 0.15 | 6.27 ± 0.23 | 6.07 ± 0.15 | 7.33 ± 0.06 | 6.93 ± 0.12 | 6.63 ± 0.15 | 6.17 ± 0.31 | 22.4 | 28.8 | 31.5 | 26.7 | 22.4 | 24.2 | 35.1 | 33.3 | inhibition in vivo at 10 mg/kg ([1]; 10.0 mg/kg, 1 h): 10.2%; inhibition in vivo at 10 mg/kg ([1]; 10.0 mg/kg, 2 h): 18.2%; inhibition in vivo at 10 mg/kg ([1]; 10.0 mg/kg, 3 h): 18.9%; inhibition in vivo at 10 mg/kg ([1]; 10.0 mg/kg, 4 h): 31.1%; IC50 (HCT 116; HCT-116, 24 h): > 200 µM; IC50 (HCT 116; HCT-116, 48 h): > 200 µM; IC50 (HCT 116; HCT-116, 72 h): > 200 µM
COc1ccc2cc([C@H](C)C(=O)NC(=S)Nc3ccccc3F)ccc2c1 [Compound 12, (S)-N-((2-fluorophenyl)carbamothioyl)-2-(6-methoxynaphthalen-2-yl)propanamide] | 6.83 ± 0.38 | 6.43 ± 0.40 | 6.00 ± 0.30 | 5.53 ± 0.06 | 6.07 ± 0.64 | 5.83 ± 0.49 | 5.57 ± 0.38 | 5.03 ± 0.12 | 6.33 ± 0.21 | 6.03 ± 0.06 | 5.60 ± 0.10 | 5.17 ± 0.21 | 8.84 | 16.7 | 24.3 | 37.8 | 18.4 | 19.7 | 18.9 | 35.6 | inhibition in vivo at 10 mg/kg ([1]; 10.0 mg/kg, 1 h): 19.7%; inhibition in vivo at 10 mg/kg ([1]; 10.0 mg/kg, 2 h): 24.2%; inhibition in vivo at 10 mg/kg ([1]; 10.0 mg/kg, 3 h): 33.3%; inhibition in vivo at 10 mg/kg ([1]; 10.0 mg/kg, 4 h): 46.7%; Cytotoxic effect against the HCT 116 cell line (in words) (HCT 116): moderate cytotoxic effects; IC50 (HCT 116; HCT-116, 24 h): > 200 µM; IC50 (HCT 116; HCT-116, 48 h): 159 ± 17.5 µM; IC50 (HCT 116; HCT-116, 72 h): 68.8 ± 9.5 µM
COC(=O)[C@H](Cc1ccccc1)NC(=S)NC(=O)[C@@H](C)c1ccc2cc(OC)ccc2c1 [Compound 13, Methyl (((S)-2-(6-methoxynaphthalen-2-yl)propanoyl)carbamothioyl)phenylalaninate] | 7.0 ± 0.10 | 6.60 ± 0.10 | 6.13 ± 0.12 | 5.83 ± 0.06 | 6.90 ± 0.10 | 6.43 ± 0.32 | 5.90 ± 0.36 | 5.47 ± 0.23 | 6.77 ± 0.42 | 6.40 ± 0.36 | 6.10 ± 0.36 | 5.80 ± 0.30 | 6.12 | 13.6 | 22.5 | 24.4 | -0.68 | 9.09 | 20.7 | 31.1 | inhibition in vivo at 10 mg/kg ([1]; 10.0 mg/kg, 1 h): 19.7%; inhibition in vivo at 10 mg/kg ([1]; 10.0 mg/kg, 2 h): 27.3%; inhibition in vivo at 10 mg/kg ([1]; 10.0 mg/kg, 3 h): 29.7%; inhibition in vivo at 10 mg/kg ([1]; 10.0 mg/kg, 4 h): 33.3%; IC50 (HCT 116; HCT-116, 24 h): > 200 µM; IC50 (HCT 116; HCT-116, 48 h): > 200 µM; IC50 (HCT 116; HCT-116, 72 h): 99.6 ± 4.9 µM
